Source: patent US6130250A, “Veterinary use of a pleuromutilin derivative” (priority 1996, dated 2000)
Where a name gives a salt, the structure may show the parent alone.

How the values were obtained:
[1] = test system: Serpulina hyodysenteriae; assay: MIC determination on agar, 10 S. hyodysenteriae strains; assay type: cell-based
[2] = test system: S. hyodysenteriae; assay: MIC determination by agar dilution, 10 strains from porcine faeces; assay type: cell-based, Serpulina hyodysenteriae; conditions: for MIC: Brachyspira hyodysenteriae
Method: Minimum inhibitory concentrations (MICs) are determined against 10 strains of S. hyodysenteriae isolated from porcine faeces, by the agar dilution method. NCTC (National Collection of Type Cultures) strains or reference strains are used as controls in all MIC tests. The agar medium for S. hyodysenteriae consists of BAB2 (Unipath CM271) containing 7% whole defibrinated sterile sheep blood. All antimicrobial agents are tested in doubling dilutions. Prepared antibiotic dilutions are added to an appropriate volume of MH agar, previously cooled to 50° C., mixed and 20 ml volumes poured. All S. hyodysenteriae incubations are performed in an anaerobic work station at 37° C. (+/-0.5° C.) (Don Whitley Scientific) which provides a strict anaerobic atmosphere comprising 80% nitrogen, 10% hydrogen and 10% carbon dioxide. All other incubations are performed at 37° C. All strains are incubated in an […] atmosphere at 37° C. for 24 hours. The numbers of the organisms are adjusted to an optical density (OD) equivalent to 1×10^8 colony forming units (cfu) per ml, using MH broth as a blank. The antibiotic containing plates are inoculated in duplicate using a multipoint inoculator (Denley Instruments) which delivers a plate inoculum of approximately 1 μl giving an inoculum of 10^4 -10^5 cfu per spot for all strains (Amon, J. Antimicrob. Chemother. 21 [1988] 701-710; Ericsson et al., Acta Pathol. Microbiol. et Immunol. Scand. 217 [1971] (B) Suppl., 1-90). Control plates are incubated under the same conditions as the test plates. The MICs are read after 24 and 48 hours, the latter being the definitive reading. The MIC is defined as the lowest concentration of antibiotic on which there is no growth, disregarding a single colony or a faint haze caused by the inoculum (National Committee for Clinical Laboratory Standards [1989], Antimicrobial Susceptibility Testing, NCCLC Publications SC3, Villanova, Pa., USA).

[3] = test system: S. hyodysenteriae; assay: Challenge trial: prevention of swine dysentery; assay type: in vivo, pigs; conditions: for pigs with S. hyodysenteriae isolated: rectal swabs
Method: Two trials were effected where valnemulin fed at various inclusion levels is compared to tiamulin for the prevention of swine dysentery. The severity of disease is assessed by the evidence of clinical disease as determined by clinical scores for body condition, faeces consistency and composition. The excretion of Serpulina hyodysenteriae in faeces, lesions at post-mortem examination, growth rate and feed conversion ratio are also determined.
In the first trial valnemulin hydrochloride fed at 20, 30 and 40 ppm is compared with tiamulin hydrogen fumarate fed at 30 ppm and with unmedicated controls. Five groups of 9 (5 to 6 week old) conventionally reared pigs are used for each treatment group. The pigs are fed unmedicated food for 14 days, then challenged with the standard strain of S. hyodysenteriae (P18A). Challenge is by the oral route on two consecutive days. The medicated feed is introduced on the day after the second challenge. In the second trial a similar procedure is followed except that 4 groups of approximately 9 pigs were used. These are fed valnemulin hydrochloride at 5, 10 and 20 ppm and compared to unmedicated controls. In this trial the pigs used are from an outdoor reared herd and are challenged with a strain of S. hyodysenteriae isolated from an outdoor herd and previously shown to be capable of causing swine dysentery. In both trials the evidence of clinical disease is assessed daily and a clinical score assigned, rectal swabs are taken twice weekly for isolation of S. hyodysenteriae and all pigs are weighed at regular intervals. Food intake is also recorded. A post-mortem examination is carried out 21 days after challenge and the large intestine examined for the presence of lesions. Mucosal scrapings are also taken from 4 areas in the large intestine and cultured for S. hyodysenteriae.

[4] = test system: Mycoplasma gallisepticum; assay: Challenge study, treatment of Mycoplasma gallisepticum infection; assay type: in vivo, male broiler chicks; conditions: for mortality: valnemulin all three concentrations, tiamulin 0.05%
Description: Groups of male broiler chicks are infected with a virulent strain of Mycoplasma gallisepticum (MG) and each group medicated respectively with valnemulin at a concentration of 0.0125%, 0.025%, 0.05%, tiamulin at the same concentration, tylosin 0.05% and a […], spectinomycin combination (Linco-Spectin) 0.083%. There is also one infected group left untreated and an uninfected group. The chicks are infected at two days of age by the injection of 3.4×10^5 organisms into each lung. Medication in the drinking water is commenced 24 hours later for three successive days except for Linco-Spectin with which treatment was continued for 5 days.

[5] = test system: weakly beta-hemolytic spirochetes; conditions: WBHS
[6] = first trial, valnemulin 20 and 40 ppm

## C=C[C@]1(C)C[C@@H](OC(=O)CSCCN(CC)CC)[C@]2(C)[C@H](C)CC[C@]3(CCC(=O)[C@H]32)[C@@H](C)[C@@H]1O [tiamulin hydrogen fumarate]
[1]; 10 S. hyodysenteriae strains
  number of strains with MIC 0.125 μg/ml: 6
  number of strains with MIC 0.250 μg/ml: 1
  number of strains with MIC 0.500 μg/ml: 1
  number of strains with MIC 1 μg/ml: 2
[2]
  MIC: 0.3 mg/L
[3]; first trial, tiamulin 30 ppm
  pigs with S. hyodysenteriae isolated: 2
  isolation of S. hyodysenteriae from mucosal scrapings: isolated from mucosal scrapings taken from all of these affected animals
  post-mortem lesions in pigs with clinical signs: typical lesions of swine dysentery
  post-mortem lesions in pigs without previous clinical signs: one pig
[3]; first trial, tiamulin 30 ppm in feed
  animals with clinical disease: 2 out of 9
[3]; first trial, tiamulin 30 ppm, control 36
  mean clinical score per pig: 6
[3]; tiamulin 30 ppm in feed
  prevention of swine dysentery in words: did not prevent swine dysentery but reduced the incidence of disease
[4]; tiamulin and tylosin
  lesions: only a few
[4]
  mortality: no more than 5%

## C=C[C@]1(C)C[C@@H](OC(=O)CSC(C)(C)CNC(=O)[C@H](N)C(C)C)[C@]2(C)[C@H](C)CC[C@]3(CCC(=O)[C@H]32)[C@@H](C)[C@@H]1O [valnemulin hydrochloride, 14-O-[1-[(R)-2-amino-3-methylbutyrylamino]-2-methylpropan-2-ylthioacetyl]mutilin]
[1]; 10 S. hyodysenteriae strains
  number of strains with MIC 0.0156 μg/ml: 2
  number of strains with MIC 0.0312 μg/ml: 4
  number of strains with MIC 1 μg/ml: 1
[1]; S. hyodysenteriae strains
  MIC times less than those of tiamulin: 2-32 times
[1]; all strains
  susceptibility of S. hyodysenteriae strains: highly susceptible
[2]
  MIC: 0.1 mg/L
[2]; all strains
  susceptibility of S. hyodysenteriae strains: susceptible
[2]; vs tiamulin, lincomycin, tylosin, dimetridazole
  most active of the agents tested by: 3-600 fold
[3]; first trial, valnemulin 30 ppm
  pigs with S. hyodysenteriae isolated: 2 pigs
  isolation of S. hyodysenteriae from mucosal scrapings: not isolated from mucosal scrapings
  pigs with post-mortem lesions: One pig
[3]; [6]
  isolation of S. hyodysenteriae: not isolated
  post-mortem lesions: Lesions were not seen
[3]; first trial, valnemulin 20 and 40 ppm in feed
  evidence of disease: Evidence of disease was not seen
[3]; first trial, valnemulin 30 ppm in feed
  pigs with clinical disease: 1 pig
[3]; in feed
  inclusion rate down to which effective in preventing swine dysentery: 10 ppm
[3]; second trial, 5 ppm
  animals affected: 5 out of 10
  p of mean clinical score vs controls: < 0.005
  p of numbers affected vs controls: < 0.05
  p, heavier than controls at end of trial: 0.05
[3]; second trial, 5 ppm, no clinical signs
  other animals with lesions and S. hyodysenteriae in mucosal scrapings: 2 animals
[3]; second trial, 5 ppm, of 5 pigs with previous signs, S. hyodysenteriae not isolated
  pigs with post-mortem lesions: 2
[3]; second trial, 5 ppm, of the 5 animals affected
  pigs with S. hyodysenteriae isolated from rectal swabs: 2
[3]; second trial, 5 ppm, control 77
  mean clinical score: 11
[3]; second trial, 5 ppm, control 5 days
  first clinical signs after challenge: 8 days
[3]; second trial, 10 and 20 ppm
  p, heavier than controls at end of trial: < 0.05
[3]; second trial, 10 or 20 ppm
  clinical signs of disease: not seen
  isolation of S. hyodysenteriae: not isolated
  post-mortem lesions: Lesions were not seen
[3]; valnemulin 5 ppm in feed
  prevention of swine dysentery in words: did not completely prevent clinical disease or the shedding of spirochaetes
[3]; valnemulin 10 ppm in feed
  prevention compared with tiamulin: clearly more effective than Tiamulin at 30 ppm
[4]; valnemulin 0.025% and 0.05% in drinking water
  overall efficacy vs comparators: at least as good as or better than tiamulin at 0.05% or tylosin at 0.05% and very much better than Linco-Spectin
[4]; valnemulin 3 groups, tylosin 0.05%
  recovery of Mycoplasma at 23 days: not recovered
[4]
  mortality: no more than 5%
[4]; valnemulin at all concentrations
  weight gains: higher than for the tiamulin treated groups and equal to the tylosin group
[4]; valnemulin highest and lowest doses
  lesions: Lesions were not seen
[5]
  strains with MIC at the lowest value: 9 out of 10 strains
